The numbers were not newly measured in patent EP0343306A1, “Liquid pharmaceutical preparation based on theophylline with a retarding effect, and process for producing it” (CARULLA VEKAR, S.A., priority 1988, dated 1989), which cites them from elsewhere.

The conditions of this data set: in vivo.

The structures appear in SMILES notation.

On to `Cn1c(=O)c2[nH]cnc2n(C)c1=O` [theophylline], for which the “plasmatic levels associated with a significant incidence of side effects” value is “above 20 mcg/ml”.
